US20230106032A1, “IMIDAZOTRIAZINES ACTING ON CANCER VIA INHIBITION OF CDK12” (Bayer Aktiengesellschaft, priority 2020, published 2023)

Biological target: T1, CDK2/CycE (Homo sapiens, UniProt P24941)
T1 construct: purchased ProQinase GmbH (Freiburg, Germany); host or cells: insect cells (Sf9)
Test: CDK2/CycE kinase assay (TR-FRET, 2 mM ATP)
Assay type: biochemical
Conditions: read-out: CDK2/CyclinE, 2 mM ATP (high ATP) IC50-[mol/l] (median)
From the text: CDK2/CycE-inhibitory activity of compounds of the present invention was quantified employing the CDK2/CycE TR-FRET assay as described in the following paragraphs.
Recombinant fusion proteins of GST and human CDK2 and of GST and human CycE, expressed in insect cells (Sf9) and purified by Glutathion-Sepharose affinity chromatography, were purchase from ProQinase GmbH (Freiburg, Germany). As substrate for the kinase reaction biotinylated peptide biotin-Ttds-YISPLKSPYKISEG (C-terminus in amid form) was used which can be purchased e.g. form the company JERINI peptide technologies (Berlin, Germany).
For the assay 50 nanoL of a 100 fold concentrated solution of the test compound in DMSO was pipetted into a black low volume 384 well microtiter plate or a black 1536 well microtiter plate (both Greiner Bio-One, Frickenhausen, Germany), 2 microL of a solution of CDK2/CycE in aqueous assay buffer [50 millimol/L Tris/HCl pH 8.0, 10 millimol/L MgCl2, 1.0 millimol/L dithiothreitol, 0.1 millimol/L sodium ortho-vanadate, 0.01% (v/v) Nonidet-P40 (Sigma)] were added and the mixture was incubated for 15 min at 22° C. to allow pre-binding of the test compounds to the enzyme before the start of the kinase reaction. Then the kinase reaction was started by the addition of 3 microL of a solution of adenosine-tri-phosphate (ATP, 3.33 millimol/L=> final conc. in the 5 microL assay volume is 2 millimol/L) and substrate (1.25 micromol/L=> final conc. in the 5 microL assay volume is 0.75 micromol/L) in assay buffer and the resulting mixture was incubated for a reaction time of 25 min at 22° C. The concentration of CDK2/CycE was adjusted depending of the activity of the enzyme lot and was chosen appropriate to have the assay in the linear range, typical concentrations were in the range of 10 ng/ml. The reaction was stopped by the addition of 3 microL of a solution of TR-FRET detection reagents (0.333 micromol/L streptavidine-XL665 [Cisbio Bioassays, Codolet, France] and 1.67 nanomol/L anti-RB(pSer807/pSer8l 1)-antibody from BD Pharmingen [#558389] and 2 nanomol/L LANCE EU-W1024 labeled anti-mouse IgG antibody [Perkin-Elmer, product no. AD0077, as an alternative a Terbium-cryptate-labeled anti-mouse IgG antibody from Cisbio Bioassays can be used]) in an aqueous EDTA-solution (167 millimol/L EDTA, 0.2% (w/v) bovine serum albumin in 100 millimol/L HEPES pH 7.5).
The resulting mixture was incubated 1 h at 22° C. to allow the formation of complex between the phosphorylated biotinylated peptide and the detection reagents. Subsequently the amount of phosphorylated substrate was evaluated by measurement of the resonance energy transfer from the Eu-chelate to the streptavidine-XL. Therefore, the fluorescence emissions at 620 nm and 665 nm after excitation at 350 nm was measured in a TR-FRET reader, e.g. a Pherastar (BMG Labtechnologies, Offenburg, Germany) or a Viewlux (Perkin-Elmer). The ratio of the emissions at 665 nm and at […] was taken as the measure for the amount of phosphorylated substrate. The data were normalised (enzyme reaction without inhibitor=0% inhibition, all other assay components but no enzyme=100% inhibition).

Row | IC50 [µM] | Structure (SMILES)
1 | > 20 | Fc1cccc(-c2cnc3c(NCc4nc5ccccc5[nH]4)nc(N4CCOCC4)nn23)c1 [Example 3, N-[(1H-benzimidazol-2-yl)methyl]-7-(3-fluorophenyl)-2-(morpholin-4-yl)imidazo[2,1-f][1,2,4]triazin-4-amine]
2 | > 20 | C[C@@H]1CN(c2nc(NCc3nc4ccccc4[nH]3)c3ncc(Br)n3n2)C[C@H](C)O1 [Example 4, N-[(1H-benzimidazol-2-yl)methyl]-7-bromo-2-[rel-(2R,6S)-2,6-dimethylmorpholin-4-yl]imidazo[2,1-f][1,2,4]triazin-4-amine]
3 | > 20 | C[C@@H]1CN(c2nc(NCc3nc4c(F)c(F)ccc4[nH]3)c3ncc(Br)n3n2)C[C@H](C)O1 [Example 5, 7-bromo-N-[(4,5-difluoro-1H-benzimidazol-2-yl)methyl]-2-[rel-(2R,6S)-2,6-dimethylmorpholin-4-yl]imidazo[2,1-f][1,2,4]triazin-4-amine]
4 | > 20 | CN1CCN(c2nc(NCc3nc4ccccc4[nH]3)c3ncc(Br)n3n2)CC1 [Example 6, N-[(1H-benzimidazol-2-yl)methyl]-7-bromo-2-(4-methylpiperazin-1-yl)imidazo[2,1-f][1,2,4]triazin-4-amine]
5 | > 20 | Fc1ccc2[nH]c(CNc3nc(N4CCOCC4)nn4c(Br)cnc34)nc2c1F [Example 7, 7-bromo-N-[(4,5-difluoro-1H-benzimidazol-2-yl)methyl]-2-(morpholin-4-yl)imidazo[2,1-f][1,2,4]triazin-4-amine]
6 | > 20 | Brc1cnc2c(NCc3nc4ccccc4[nH]3)nc(N3CCNCC3)nn12 [Example 8, N-[(1H-benzimidazol-2-yl)methyl]-7-bromo-2-(piperazin-1-yl)imidazo[2,1-f][1,2,4]triazin-4-amine]
7 | > 20 | C[C@@H]1CN(c2nc(NCc3nc4ccccc4[nH]3)c3ncc(Br)n3n2)C[C@H](C)N1 [Example 9, N-[(1H-benzimidazol-2-yl)methyl]-7-bromo-2-[rel-(3R,5S)-3,5-dimethylpiperazin-1-yl]imidazo[2,1-f][1,2,4]triazin-4-amine]
8 | > 20 | Fc1ccc2[nH]c(CNc3nc(N4CCNCC4)nn4c(Br)cnc34)nc2c1F [Example 10, 7-bromo-N-[(4,5-difluoro-1H-benzimidazol-2-yl)methyl]-2-(piperazin-1-yl)imidazo[2,1-f][1,2,4]triazin-4-amine]
9 | > 20 | C[C@@H]1CN(c2nc(NCc3nc4c(F)c(F)ccc4[nH]3)c3ncc(Br)n3n2)C[C@H](C)N1 [Example 11, 7-bromo-N-[(4,5-difluoro-1H-benzimidazol-2-yl)methyl]-2-[rel-(3R,5S)-3,5-dimethylpiperazin-1-yl]imidazo[2,1-f][1,2,4]triazin-4-amine]
10 | > 20 | Fc1cccc2[nH]c(CNc3nc(N4CCOCC4)nn4c(Br)cnc34)nc12 [Example 12, 7-bromo-N-[(4-fluoro-1H-benzimidazol-2-yl)methyl]-2-(morpholin-4-yl)imidazo[2,1-f][1,2,4]triazin-4-amine]
11 | 5.74 | COc1cccc2[nH]c(CNc3nc(N4CCOCC4)nn4c(Br)cnc34)nc12 [Example 13, 7-bromo-N-[(4-methoxy-1H-benzimidazol-2-yl)methyl]-2-(morpholin-4-yl)imidazo[2,1-f][1,2,4]triazin-4-amine]
12 | > 20 | COc1cccc2[nH]c(CNc3nc(N4C[C@@H](C)N[C@@H](C)C4)nn4c(Br)cnc34)nc12 [Example 14, 7-bromo-2-[rel-(3R,5S)-3,5-dimethylpiperazin-1-yl]-N-[(4-methoxy-1H-benzimidazol-2-yl)methyl]imidazo[2,1-f][1,2,4]triazin-4-amine]
13 | 14.2 | COc1cccc2[nH]c(CNc3nc(N4CCNCC4)nn4c(Br)cnc34)nc12 [Example 15, 7-bromo-N-[(4-methoxy-1H-benzimidazol-2-yl)methyl]-2-(piperazin-1-yl)imidazo[2,1-f][1,2,4]triazin-4-amine]
14 | 12.6 | COc1cccc2[nH]c(CNc3nc(N4CCN(C)CC4)nn4c(Br)cnc34)nc12.O=CO [Example 16, 7-bromo-N-[(4-methoxy-1H-benzimidazol-2-yl)methyl]-2-(4-methylpiperazin-1-yl)imidazo[2,1-f][1,2,4]triazin-4-amine Formate (1/1)]
15 | 1.41 | OC[C@@H]1CCCCN1c1nc(NCc2nc3ccccc3[nH]2)c2ncc(Br)n2n1 [Example 17, [(2S)-1-(4-{[(1H-benzimidazol-2-yl)methyl]amino}-7-bromoimidazo[2,1-f][1,2,4]triazin-2-yl)piperidin-2-yl]methanol]
16 | > 20 | C[C@@H]1CN(c2nc(NCc3nc4c(F)cccc4[nH]3)c3ncc(Br)n3n2)C[C@H](C)N1 [Example 18, 7-bromo-2-[rel-(3R,5S)-3,5-dimethylpiperazin-1-yl]-N-[(4-fluoro-1H-benzimidazol-2-yl)methyl]imidazo[2,1-f][1,2,4]triazin-4-amine]
17 | > 20 | C[C@@H]1CN(c2nc(NCc3nc4cc(F)ccc4[nH]3)c3ncc(Br)n3n2)C[C@H](C)N1 [Example 19, 7-bromo-2-[rel-(3R,5S)-3,5-dimethylpiperazin-1-yl]-N-[(5-fluoro-1H-benzimidazol-2-yl)methyl]imidazo[2,1-f][1,2,4]triazin-4-amine]
18 | 17.2 | Fc1ccc2[nH]c(CNc3nc(N4CCOCC4)nn4c(Br)cnc34)nc2c1 [Example 20, 7-bromo-N-[(5-fluoro-1H-benzimidazol-2-yl)methyl]-2-(morpholin-4-yl)imidazo[2,1-f][1,2,4]triazin-4-amine]
19 | > 20 | CN1CCN(c2nc(NCc3nc4cc(F)ccc4[nH]3)c3ncc(Br)n3n2)CC1 [Example 21, 7-bromo-N-[(5-fluoro-1H-benzimidazol-2-yl)methyl]-2-(4-methylpiperazin-1-yl)imidazo[2,1-f][1,2,4]triazin-4-amine]
20 | > 20 | CN1CCN(c2nc(NCc3nc4c(F)cccc4[nH]3)c3ncc(Br)n3n2)CC1 [Example 23, 7-bromo-N-[(4-fluoro-1H-benzimidazol-2-yl)methyl]-2-(4-methylpiperazin-1-yl)imidazo[2,1-f][1,2,4]triazin-4-amine]
21 | > 20 | C[C@@H]1CN(c2nc(NCc3nc4ccccc4[nH]3)c3ncc(C(F)(F)F)n3n2)C[C@H](C)N1.O=CO [Example 24, N-[(1H-benzimidazol-2-yl)methyl]-2-[rel-(3R,5S)-3,5-dimethylpiperazin-1-yl]-7-(trifluoromethyl)imidazo[2,1-f][1,2,4]triazin-4-amine Formate (1/1)]
22 | > 20 | CN1CCN(c2nc(NCc3nc4ccccc4[nH]3)c3ncc(C(F)(F)F)n3n2)CC1 [Example 25, N-[(1H-benzimidazol-2-yl)methyl]-2-(4-methylpiperazin-1-yl)-7-(trifluoromethyl)imidazo[2,1-f][1,2,4]triazin-4-amine]
23 | > 19.4 | FC(F)(F)c1cnc2c(NCc3nc4ccccc4[nH]3)nc(N3CCOCC3)nn12 [Example 26, N-[(1H-benzimidazol-2-yl)methyl]-2-(morpholin-4-yl)-7-(trifluoromethyl)imidazo[2,1-f][1,2,4]triazin-4-amine]
24 | > 20 | Fc1ccc2[nH]c(CNc3nc(N4CCOCC4)nn4c(C(F)(F)F)cnc34)nc2c1F [Example 27, N-[(4,5-difluoro-1H-benzimidazol-2-yl)methyl]-2-(morpholin-4-yl)-7-(trifluoromethyl)imidazo[2,1-f][1,2,4]triazin-4-amine]
25 | > 20 | CN1CCN(c2nc(NCc3nc4c(F)c(F)ccc4[nH]3)c3ncc(C(F)(F)F)n3n2)CC1 [Example 28, N-[(4,5-difluoro-1H-benzimidazol-2-yl)methyl]-2-(4-methylpiperazin-1-yl)-7-(trifluoromethyl)imidazo[2,1-f][1,2,4]triazin-4-amine]
26 | > 20 | C[C@@H]1CN(c2nc(NCc3nc4c(F)c(F)ccc4[nH]3)c3ncc(C(F)(F)F)n3n2)C[C@H](C)N1 [Example 29, N-[(4,5-difluoro-1H-benzimidazol-2-yl)methyl]-2-[rel-(3R,5S)-3,5-dimethylpiperazin-1-yl]-7-(trifluoromethyl)imidazo[2,1-f][1,2,4]triazin-4-amine]
